Laboratory results: the supplement of paper PMC10883282
± gives the standard deviation of the averaged measurements.

Tested on: SK-ES-1
Experiment: relative viability vs DMSO control (72 h) (fraction); higher = more viable cells
How it was run: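 A 5 µM positive control and 0.1% DMSO vehicle ran alongside sarcoma cell lines seeded in 384-well plates to reach 80–90% confluence. Serially diluted compound, 2.5 µl from source plates of 10 mM to 0.0002 mM, was added after 24 h, and the plates were held 72 h at 37 °C, 5% CO2. Relative viability was worked out from ATPLite readings as percent growth averaged over up to triplicate wells. The values were rescaled so that 1 is full and 0 is none.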

SMILES | relative viability (0.00017 µM) | relative viability (0.00051 µM) | relative viability (0.00152 µM) | relative viability (0.00457 µM) | relative viability (0.01372 µM) | relative viability (0.04115 µM) | relative viability (0.1235 µM) | relative viability (0.3704 µM) | relative viability (1.111 µM) | relative viability (3.333 µM) | relative viability (10 µM)
CCN1CCN(Cc2ccc(Nc3ncc(F)c(-c4cc(F)c5nc(C)n(C(C)C)c5c4)n3)nc2)CC1 [Abemaciclib] | 1.03 ± 0.032 | 1.04 ± 0.027 | 0.995 ± 0.031 | 1 ± 0.052 | 0.922 ± 0.055 | 0.728 ± 0.018 | 0.481 ± 0.035 | 0.413 ± 0.012 | 0.38 ± 0.0066 | 0.346 ± 0.01 | 0.00807 ± 0.00042
CC(C)NC(=O)C1CCC(n2c(NC(=O)c3ccc(F)cc3)nc3ccc(CN4CCC(C(C)(C)O)CC4)cc32)CC1 (stereo not drawn) [Belizatinib] | 1.03 ± 0.038 | 1.02 ± 0.041 | 1.06 ± 0.031 | 1.05 ± 0.029 | 1.05 ± 0.039 | 1.08 ± 0.032 | 0.943 ± 0.065 | 0.633 ± 0.031 | 0.311 ± 0.013 | 0.208 ± 0.01 | 0.0946 ± 0.0023
CC[C@H](Nc1ncnc2[nH]cnc12)c1nc2cccc(F)c2c(=O)n1-c1ccccc1 [Idelalisib] | 1.06 ± 0.041 | 1.06 ± 0.06 | 1.03 ± 0.024 | 1.08 ± 0.018 | 1.08 ± 0.015 | 1.08 ± 0.051 | 1.04 ± 0.042 | 1.02 ± 0.021 | 1.01 ± 0.056 | 0.905 ± 0.052 | 0.827 ± 0.01
CC(C)(C)c1cc(NC(=O)Nc2ccc(-c3cn4c(n3)sc3cc(OCCN5CCOCC5)ccc34)cc2)no1 [Quizartinib] | 0.995 ± 0.028 | 1.05 ± 0.05 | 1.08 ± 0.014 | 1.1 ± 0.036 | 1.08 ± 0.037 | 1.04 ± 0.011 | 1.08 ± 0.035 | 1.1 ± 0.069 | 0.904 ± 0.033 | 0.674 ± 0.049 | 0.594 ± 0.056
Cc1cnc(Nc2ccc(OCCN3CCCC3)cc2)nc1Nc1cccc(S(=O)(=O)NC(C)(C)C)c1 [Fedratinib] | 0.99 ± 0.063 | 1.03 ± 0.045 | 1.047 ± 0.01 | 1.06 ± 0.028 | 1.04 ± 0.016 | 1.03 ± 0.023 | 0.859 ± 0.067 | 0.489 ± 0.014 | 0.123 ± 0.01 | 0.0173 ± 0.002 | 0.0056 ± 0.00035
CC1(C)CNc2cc(NC(=O)c3cccnc3NCc3ccncc3)ccc21 [Motesanib] | 0.942 ± 0.053 | 0.899 ± 0.059 | 0.952 ± 0.013 | 0.891 ± 0.017 | 0.9075 ± 0.0058 | 0.938 ± 0.056 | 0.974 ± 0.051 | 0.913 ± 0.043 | 0.954 ± 0.044 | 0.924 ± 0.053 | 0.753 ± 0.038
Nc1cc(C(F)(F)F)c(-c2cc(N3CCOCC3)nc(N3CCOCC3)n2)cn1 [Buparlisib] | 1.03 ± 0.025 | 1 ± 0.052 | 1.02 ± 0.037 | 1.04 ± 0.035 | 1.03 ± 0.029 | 1.04 ± 0.019 | 0.93 ± 0.033 | 0.749 ± 0.035 | 0.157 ± 0.014 | 0.041 ± 0.00093 | 0.0484 ± 0.0029
Cc1cc(C)c(/C=C2\C(=O)Nc3ccccc32)[nH]1 [Semaxanib] | 0.972 ± 0.06 | 1.01 ± 0.056 | 0.954 ± 0.028 | 1 ± 0.056 | 0.967 ± 0.055 | 0.999 ± 0.018 | 1 ± 0.027 | 0.986 ± 0.09 | 0.925 ± 0.042 | 0.934 ± 0.052 | 0.765 ± 0.068
CCc1cc2c(cc1N1CCC(N3CCOCC3)CC1)C(C)(C)c1[nH]c3cc(C#N)ccc3c1C2=O [Alectinib] | 1 ± 0.048 | 1.04 ± 0.023 | 1.07 ± 0.025 | 1.07 ± 0.025 | 1.02 ± 0.031 | 1.03 ± 0.02 | 1.06 ± 0.084 | 1.01 ± 0.068 | 1.08 ± 0.056 | 1.04 ± 0.035 | 0.915 ± 0.068
Cn1cnc2c(F)c(Nc3ccc(Br)cc3F)c(C(=O)NOCCO)cc21 [Binimetinib] | 1.03 ± 0.019 | 1.02 ± 0.018 | 0.988 ± 0.021 | 0.984 ± 0.058 | 0.95 ± 0.028 | 0.957 ± 0.045 | 0.983 ± 0.036 | 0.923 ± 0.015 | 0.945 ± 0.05 | 0.893 ± 0.027 | 0.861 ± 0.077
C=CC(=O)Nc1cccc(Oc2nc(Nc3ccc(N4CCN(C)CC4)cc3)nc3ccsc23)c1 [Olmutinib] | 0.979 ± 0.049 | 1.029 ± 0.0089 | 0.999 ± 0.047 | 1.03 ± 0.028 | 1.03 ± 0.036 | 1.018 ± 0.0064 | 1.05 ± 0.022 | 1.05 ± 0.051 | 0.996 ± 0.059 | 0.921 ± 0.011 | 0.339 ± 0.041
CN1CCN(c2ccc3nc(-c4c(N)c5c(F)cccc5[nH]c4=O)[nH]c3c2)CC1 [Dovitinib] | 1.02 ± 0.013 | 1.07 ± 0.037 | 1.044 ± 0.0086 | 1.03 ± 0.022 | 1.07 ± 0.015 | 0.963 ± 0.049 | 0.937 ± 0.039 | 0.676 ± 0.012 | 0.365 ± 0.0063 | 0.155 ± 0.017 | 0.0451 ± 0.0026
O=C(Cc1ccc(-c2ccc(OCCN3CCOCC3)cc2)cn1)NCc1ccccc1 [KX2-391] | 1.07 ± 0.02 | 1.11 ± 0.035 | 1.05 ± 0.059 | 1.07 ± 0.026 | 1.05 ± 0.032 | 0.235 ± 0.039 | 0.024 ± 0.0039 | 0.0226 ± 0.00042 | 0.0192 ± 0.0041 | 0.0176 ± 0.0029 | 0.0223 ± 0.0021
C[C@@H]1COCCN1c1cc(-c2ccnn2C)c2ccnc(-c3ccn[nH]3)c2n1 | 1.03 ± 0.031 | 1.05 ± 0.03 | 1.03 ± 0.052 | 1.09 ± 0.055 | 1.05 ± 0.039 | 0.856 ± 0.024 | 0.562 ± 0.037 | 0.285 ± 0.0067 | 0.156 ± 0.0046 | 0.101 ± 0.0046 | 0.112 ± 0.0035
CNC(=O)c1cc(Oc2ccc(NC(=O)Nc3ccc(Cl)c(C(F)(F)F)c3)c(F)c2)ccn1 [Regorafenib] | 1.11 ± 0.054 | 1.03 ± 0.027 | 1.08 ± 0.032 | 1.04 ± 0.017 | 1.02 ± 0.085 | 1.03 ± 0.014 | 1.09 ± 0.036 | 1.05 ± 0.047 | 0.952 ± 0.05 | 0.836 ± 0.017 | 0.523 ± 0.021
Cc1ccc(NC(=O)c2ccc(CN3CCN(C)CC3)cc2)cc1Nc1nc(-c2cccnc2)cs1 [Masitinib] | 1 ± 0.018 | 0.9842 ± 0.008 | 0.999 ± 0.032 | 1.06 ± 0.013 | 0.981 ± 0.033 | 1.01 ± 0.017 | 1 ± 0.042 | 0.93 ± 0.05 | 0.817 ± 0.039 | 0.5209 ± 0.0016 | 0.138 ± 0.012
CNC(=O)c1ccc(-c2cnc3ncc(Cc4ccc5ncccc5c4)n3n2)cc1F [Capmatinib] | 1.06 ± 0.011 | 1.05 ± 0.022 | 1.11 ± 0.023 | 1.08 ± 0.04 | 1.06 ± 0.021 | 1.09 ± 0.015 | 1.09 ± 0.048 | 1.08 ± 0.049 | 1.12 ± 0.03 | 1.08 ± 0.026 | 1.07 ± 0.026
CCCS(=O)(=O)Nc1ccc(F)c(C(=O)c2c[nH]c3ncc(-c4ccc(Cl)cc4)cc23)c1F [Vemurafenib] | 1.02 ± 0.061 | 1.06 ± 0.043 | 1.08 ± 0.016 | 1.09 ± 0.022 | 1.06 ± 0.043 | 1.03 ± 0.045 | 1.05 ± 0.025 | 1.1 ± 0.011 | 1.04 ± 0.06 | 0.891 ± 0.078 | 0.534 ± 0.16
